*1 amine or outer side, *2 acyl side, *3 side chain or, on linkers, in order; H or OH if unused. Where a SMILES comes first, the peptide text is derived from it. Bridges are numbered along the chain shown (N, C = ends). [ ]: non-standard residue; d: D form. The star is where a group is joined. hPhe(3,5-F2-4-CF3) = N[C@@H](CCc1cc(F)c(C(F)(F)F)c(F)c1)C(=O)O; X47 = CC(C)(C)CCN([C@@H](Cc1ccc(C(F)(F)F)cc1)C(=O)[*:2])[*:1]; hPhe(3-Cl-4-CF3) = N[C@@H](CCc1ccc(C(F)(F)F)c(Cl)c1)C(=O)O; NPrPhe(4-CF3) = CCCN[C@@H](Cc1ccc(C(F)(F)F)cc1)C(=O)O; X14 = CN([C@@H](CCCCC=[*:3])C(=O)[*:2])[*:1]; dαMeAlg = C[C@](CC=[*:3])(N[*:1])C(=O)[*:2]; X33 = C[C@@H]1CN([*:1])[C@@H]1C(=O)[*:2]; NMeGly(cPent) = CN[C@H](C(=O)O)C1CCCC1; X8 = C[C@@](N[*:1])(C(=O)[*:2])C1CC1; Hyp = O=C(O)[C@@H]1C[C@@H](O)CN1; NMeD = CN[C@@H](CC(=O)O)C(=O)O; NMeL = CN[C@@H](CC(C)C)C(=O)O; αMeL = CC(C)C[C@](C)(N)C(=O)O; Pip = O=C(O)[C@@H]1CCCCN1; Morpholide = C1CN(*)CCO1; NMeA = CN[C@@H](C)C(=O)O; Ac5c = NC1(C(=O)O)CCCC1; Aze = O=C(O)[C@@H]1CCN1; Sar = CNCC(=O)O
Assays:
[1] = biological target: GDP-bound NRAS wild-type protein (Homo sapiens, UniProt P01111); test: Binding to NRAS by surface plasmon resonance (SPR), Single Cycle Kinetics; details: SPR, GDP-bound NRAS wild-type protein vs GDP-bound KRAS wild-type protein
GDP-bound NRAS wild-type protein, sequence (P01111 whole entry): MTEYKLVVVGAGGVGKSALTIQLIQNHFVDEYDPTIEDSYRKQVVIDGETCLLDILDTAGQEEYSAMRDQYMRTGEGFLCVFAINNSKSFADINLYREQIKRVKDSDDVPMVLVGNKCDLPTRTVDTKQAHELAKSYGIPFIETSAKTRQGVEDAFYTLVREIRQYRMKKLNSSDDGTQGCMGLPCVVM

[2] = system: human lung cancer strain NCI-H441;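 further: cell proliferation inhibition after four days measured by CellTiter-Glo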
[3] = biological target: GDP-bound HRAS wild-type protein (Homo sapiens, UniProt P01112); test: Binding to HRAS by surface plasmon resonance (SPR), Single Cycle Kinetics; details: SPR, GDP-bound HRAS wild-type protein vs GDP-bound KRAS wild-type protein
GDP-bound HRAS wild-type protein, sequence (P01112 whole entry): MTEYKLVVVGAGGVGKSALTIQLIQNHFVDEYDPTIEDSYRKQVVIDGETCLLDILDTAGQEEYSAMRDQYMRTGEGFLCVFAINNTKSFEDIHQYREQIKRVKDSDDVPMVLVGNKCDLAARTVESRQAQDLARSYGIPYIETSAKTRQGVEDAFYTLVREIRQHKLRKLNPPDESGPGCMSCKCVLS

Row | Structure (SMILES) | IC50 [2] [µM] | NRAS/KRAS (ratio of KD value for NRAS to KD value for KRAS) [1] | HRAS/KRAS (ratio of KD value for HRAS to KD value for KRAS) [3] | NRAS/KRAS (ratio of KD value with respect to NRAS to KD value with respect to KRAS) [1] | HRAS/KRAS (ratio of KD value with respect to HRAS to KD value with respect to KRAS) [3]
1 | CC[C@H](C)[C@@H]1NC(=O)[C@H](CC(C)C)N(C)C(=O)C[C@@H](C(=O)N2CCOCC2)N(CC)C(=O)[C@H](C2CCCC2)N(C)C(=O)C2(CCC2)NC(=O)[C@@H]2CC(F)(F)CN2C(=O)[C@H](CCc2cc(F)c(C(F)(F)F)c(F)c2)NC(=O)CN(C)C(=O)[C@H](Cc2ccc(C(F)(F)F)cc2)N2CCCCC[C@@H](C2=O)N(C)C(=O)CN(C)C1=O [PP0954] | 0.439 | A (a compound having 10 or more and less than 20 is denoted as A) | A (a compound having 10 or more and less than 20 is denoted as A) | – | –
2 | CC[C@H](C)[C@@H]1NC(=O)[C@H](CC(C)C)N(C)C(=O)C[C@@H](C(=O)N(C)C)N(C)C(=O)[C@@H](C2CCCC2)N(C)C(=O)C2(CCCC2)NC(=O)[C@@H]2CCCN2C(=O)[C@H](CCc2ccc(C(F)(F)F)c(Cl)c2)NC(=O)CN(C)C(=O)[C@H](Cc2ccc(C(F)(F)F)cc2)N2CC/C=C(/C)C[C@@H](C2=O)N(C)C(=O)CN(C)C1=O [PP0617] | 0.159 | – | – | B (a compound having 3 or more and less than 10 is denoted as B) | B (a compound having 3 or more and less than 10 is denoted as B)
3 | CC[C@H](C)[C@@H]1NC(=O)[C@H](CC(C)C)N(C)C(=O)C[C@@H](C(=O)N(C)C)N(C)C(=O)[C@H](C2CCCC2)N(C)C(=O)C2(CCCC2)NC(=O)[C@@H]2CCCN2C(=O)[C@H](CCc2ccc(C(F)(F)F)c(Cl)c2)NC(=O)CN(C)C(=O)[C@H](Cc2ccc(C)cc2)N2CC/C=C(/C)C[C@@H](C2=O)N(C)C(=O)CN(C)C1=O [PP0616] | 0.0738 | – | – | B (a compound having 3 or more and less than 10 is denoted as B) | B (a compound having 3 or more and less than 10 is denoted as B)
4 | CCO[C@@H]1C[C@H]2C(=O)NC3(CCC3)C(=O)N(C)[C@@H](C3CCCC3)C(=O)N(C)[C@H](C(=O)N3CCOCC3)CC(=O)N(C)[C@@H](CC(C)C)C(=O)N[C@@H]([C@@H](C)CC)C(=O)N(C)CC(=O)N(C)[C@H]3CCCCCN(C3=O)[C@@H](Cc3nccs3)C(=O)N(C)CC(=O)N[C@@H](CCc3cc(F)c(C(F)(F)F)c(F)c3)C(=O)N2C1 [PP0923] | 0.445 | B (a compound having 3 or more and less than 10 is denoted as B) | B (a compound having 3 or more and less than 10 is denoted as B) | – | –
5 | CCCN1C(=O)CN(C)C(=O)[C@@H]2CCN2C(=O)[C@H]([C@@H](C)CC)NC(=O)[C@H](CC(C)C)N(C)C(=O)C[C@@H](C(=O)N2CCOCC2)N(C)C(=O)[C@H](C2CCCC2)N(C)C(=O)[C@](C)(CC(C)C)NC(=O)[C@@H]2CCCN2C(=O)[C@H](CCc2cc(F)c(C(F)(F)F)c(F)c2)NC(=O)CN(C)C(=O)[C@@H]1Cc1ccc(C(F)(F)F)cc1 [PP0776] ([NMeL]I[Aze][Sar][NPrPhe(4-CF3)][Sar][hPhe(3,5-F2-4-CF3)]P[αMeL][NMeGly(cPent)][NMeD]-Morpholide; lactam N-11) | 0.591 | – | – | B (a compound having 3 or more and less than 10 is denoted as B) | B (a compound having 3 or more and less than 10 is denoted as B)
6 | CCCN1C(=O)CN(C)C(=O)[C@@H]2CCN2C(=O)[C@H]([C@@H](C)CC)NC(=O)[C@H](CC(C)C)N(C)C(=O)C[C@@H](C(=O)N2CCOCC2)N(C)C(=O)[C@H](C2CCCC2)N(C)C(=O)[C@](C)(C2CC2)NC(=O)[C@@H]2CCCN2C(=O)[C@H](CCc2cc(F)c(C(F)(F)F)c(F)c2)NC(=O)CN(C)C(=O)[C@@H]1Cc1ccc(C(F)(F)F)cc1 [PP0772] ([NMeL]I[Aze][Sar][NPrPhe(4-CF3)][Sar][hPhe(3,5-F2-4-CF3)]P[X8][NMeGly(cPent)][NMeD]-Morpholide; lactam N-11) | 0.434 | – | – | B (a compound having 3 or more and less than 10 is denoted as B) | B (a compound having 3 or more and less than 10 is denoted as B)
7 | CC[C@H](C)[C@@H]1NC(=O)[C@H](CC)N(C)C(=O)C[C@@H](C(=O)N2CCOCC2)N(C)C(=O)[C@H](C2CCCC2)N(C)C(=O)C2(CCCC2)NC(=O)[C@@H]2CCCN2C(=O)[C@H](CCc2ccc(C(F)(F)F)c(Cl)c2)NC(=O)CN(C)C(=O)[C@H](Cc2ccc(F)cc2)N2CCCCC[C@@H](C2=O)N(C)C(=O)CN(C)C1=O [PP0959] | 0.156 | B (a compound having 3 or more and less than 10 is denoted as B) | B (a compound having 3 or more and less than 10 is denoted as B) | – | –

More lines, in order of falling IC50 [2], values ahead:

Row | IC50 [2] [µM] | Structure (SMILES) | NRAS/KRAS (ratio of KD value for NRAS to KD value for KRAS) [1] | HRAS/KRAS (ratio of KD value for HRAS to KD value for KRAS) [3] | NRAS/KRAS (ratio of KD value with respect to NRAS to KD value with respect to KRAS) [1] | HRAS/KRAS (ratio of KD value with respect to HRAS to KD value with respect to KRAS) [3]
8 | 0.0726 | CCCN1C(=O)CN(C)C(=O)CN(C)C(=O)[C@H]([C@@H](C)CC)NC(=O)[C@@H]2CCCCC=CC[C@@](C)(NC(=O)[C@@H]3C[C@@H](OCC)CN3C(=O)[C@H](CCc3cc(F)c(C(F)(F)F)c(F)c3)NC(=O)CN(C)C(=O)[C@@H]1Cc1ccc(C(F)(F)F)cc1)C(=O)N(C)[C@@H](C1CCCC1)C(=O)N(C)[C@H](C(=O)N1CCOCC1)CC(=O)N2C [PP0902] ([X14]I[Sar][Sar][NPrPhe(4-CF3)][Sar][hPhe(3,5-F2-4-CF3)][Hyp](Et)[dαMeAlg][NMeGly(cPent)][NMeD]-Morpholide; staple 1-9; lactam N-11) | A (a compound having 10 or more and less than 20 is denoted as A) | B (a compound having 3 or more and less than 10 is denoted as B) | – | –
9 | 0.0441 | CCO[C@@H]1C[C@H]2C(=O)NC3(CCC3)C(=O)N(C)[C@@H](C3CCCC3)C(=O)N(C)[C@H](C(=O)N3CCOCC3)CC(=O)N(C)[C@@H](Cc3ccccc3)C(=O)N[C@@H]([C@@H](C)CC)C(=O)N(C)CC(=O)N(C)[C@H]3CCCCCN(C3=O)[C@@H](Cc3ccc(C(F)(F)F)cc3)C(=O)N(C)CC(=O)N[C@@H](CCc3cc(F)c(C(F)(F)F)c(F)c3)C(=O)N2C1 [PP0687] | – | – | B (a compound having 3 or more and less than 10 is denoted as B) | B (a compound having 3 or more and less than 10 is denoted as B)
10 | 0.0308 | CCCN1C(=O)CN(C)C(=O)[C@@H]2[C@H](C)CN2C(=O)[C@H]([C@@H](C)CC)NC(=O)[C@H](CC(C)C)N(C)C(=O)C[C@@H](C(=O)N2CCOCC2)N(C)C(=O)[C@H](C2CCCC2)N(C)C(=O)C2(CCCC2)NC(=O)[C@@H]2CCCN2C(=O)[C@H](CCc2ccc(C(F)(F)F)c(Cl)c2)NC(=O)CN(C)C(=O)[C@@H]1Cc1ccc(C(F)(F)F)cc1 [PP0257] ([NMeL]I[X33][Sar][NPrPhe(4-CF3)][Sar][hPhe(3-Cl-4-CF3)]P[Ac5c][NMeGly(cPent)][NMeD]-Morpholide; lactam N-11) | B (a compound having 3 or more and less than 10 is denoted as B) | B (a compound having 3 or more and less than 10 is denoted as B) | – | –
11 | 0.0243 | CCO[C@@H]1C[C@H]2C(=O)NC3(CCC3)C(=O)N(C)[C@@H](C3CCCC3)C(=O)N(C)[C@H](C(=O)N3CCOCC3)CC(=O)N(C)[C@@H](COCC(F)(F)F)C(=O)N[C@@H]([C@@H](C)CC)C(=O)N(C)CC(=O)N(C)[C@H]3CCCCCN(C3=O)[C@@H](Cc3ccc(C(F)(F)F)cc3)C(=O)N(C)CC(=O)N[C@@H](CCc3cc(F)c(C(F)(F)F)c(F)c3)C(=O)N2C1 [PP0853] | B (a compound having 3 or more and less than 10 is denoted as B) | B (a compound having 3 or more and less than 10 is denoted as B) | – | –
12 | 0.0071 | CC[C@H](C)[C@@H]1NC(=O)[C@H](CC(C)C)N(C)C(=O)C[C@@H](C(=O)N2CCOCC2)N(C)C(=O)[C@H](C2CCCC2)N(C)C(=O)C2(CCCC2)NC(=O)[C@@H]2CCCN2C(=O)[C@H](CCc2ccc(C(F)(F)F)c(Cl)c2)NC(=O)CN(C)C(=O)[C@H](Cc2ccc(C(F)(F)F)cc2)N(CCC(C)(C)C)C(=O)[C@@H]2CCN2C(=O)[C@H](C)N(C)C1=O [PP0113] ([NMeL]I[NMeA][Aze][X47][Sar][hPhe(3-Cl-4-CF3)]P[Ac5c][NMeGly(cPent)][NMeD]-Morpholide; lactam N-11) | C (A compound having a KD ratio of 0.1 or more and less than 3 is denoted as C) | B (a compound having 3 or more and less than 10 is denoted as B) | – | –
13 | 0.0069 | CC[C@H](C)[C@@H]1NC(=O)[C@H](CC(C)C)N(C)C(=O)C[C@@H](C(=O)N2CCOCC2)N(C)C(=O)[C@H](C2CCCC2)N(C)C(=O)C2(CCCC2)NC(=O)[C@@H]2CCCN2C(=O)[C@H](CCc2ccc(C(F)(F)F)c(Cl)c2)NC(=O)CN(C)C(=O)[C@H](Cc2ccc(Cl)cc2)N2CCCC[C@@H](C2=O)N(C)C(=O)CN(C)C1=O [PP0532] | – | – | C (A compound having a KD ratio of 0.1 or more and less than 3 is denoted as C) | B (a compound having 3 or more and less than 10 is denoted as B)
14 | 0.0053 | CCCN1C(=O)[C@@H]2CCN2C(=O)[C@@H]2CCCCN2C(=O)[C@H]([C@@H](C)CC)NC(=O)[C@H](CC(C)C)N(C)C(=O)C[C@@H](C(=O)N2CCOCC2)N(C)C(=O)[C@H](C2CCCC2)N(C)C(=O)C2(CCCC2)NC(=O)[C@@H]2CCCN2C(=O)[C@H](CCc2ccc(C(F)(F)F)c(Cl)c2)NC(=O)CN(C)C(=O)[C@@H]1Cc1ccc(C(F)(F)F)cc1 [PP0077] ([NMeL]I[Pip][Aze][NPrPhe(4-CF3)][Sar][hPhe(3-Cl-4-CF3)]P[Ac5c][NMeGly(cPent)][NMeD]-Morpholide; lactam N-11) | C (A compound having a KD ratio of 0.1 or more and less than 3 is denoted as C) | B (a compound having 3 or more and less than 10 is denoted as B) | – | –
